Experimental data published in ChEMBL document CHEMBL1201862, “PubChem BioAssay data set” (2004).
Activity calls are given as the source filed them. Rule as the data show it, for most assays here: actives have a measured EC50 and inactives only a lower limit.

What was measured:
Fatty acid synthase [1] = molecular target: T1, Fatty acid synthase (Homo sapiens, UniProt P49327); test: FAS thioesterase domain inhibitors, dose response, biochemical, endpoint fluorescence intensity, uHTS hits (AID 624327); type: functional;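 also: fluorescence from hydrolysis of an O-methyl fluorescein acyl ester substrate by the enzyme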
T1 sequence (P49327 whole entry, the tested form may be a part): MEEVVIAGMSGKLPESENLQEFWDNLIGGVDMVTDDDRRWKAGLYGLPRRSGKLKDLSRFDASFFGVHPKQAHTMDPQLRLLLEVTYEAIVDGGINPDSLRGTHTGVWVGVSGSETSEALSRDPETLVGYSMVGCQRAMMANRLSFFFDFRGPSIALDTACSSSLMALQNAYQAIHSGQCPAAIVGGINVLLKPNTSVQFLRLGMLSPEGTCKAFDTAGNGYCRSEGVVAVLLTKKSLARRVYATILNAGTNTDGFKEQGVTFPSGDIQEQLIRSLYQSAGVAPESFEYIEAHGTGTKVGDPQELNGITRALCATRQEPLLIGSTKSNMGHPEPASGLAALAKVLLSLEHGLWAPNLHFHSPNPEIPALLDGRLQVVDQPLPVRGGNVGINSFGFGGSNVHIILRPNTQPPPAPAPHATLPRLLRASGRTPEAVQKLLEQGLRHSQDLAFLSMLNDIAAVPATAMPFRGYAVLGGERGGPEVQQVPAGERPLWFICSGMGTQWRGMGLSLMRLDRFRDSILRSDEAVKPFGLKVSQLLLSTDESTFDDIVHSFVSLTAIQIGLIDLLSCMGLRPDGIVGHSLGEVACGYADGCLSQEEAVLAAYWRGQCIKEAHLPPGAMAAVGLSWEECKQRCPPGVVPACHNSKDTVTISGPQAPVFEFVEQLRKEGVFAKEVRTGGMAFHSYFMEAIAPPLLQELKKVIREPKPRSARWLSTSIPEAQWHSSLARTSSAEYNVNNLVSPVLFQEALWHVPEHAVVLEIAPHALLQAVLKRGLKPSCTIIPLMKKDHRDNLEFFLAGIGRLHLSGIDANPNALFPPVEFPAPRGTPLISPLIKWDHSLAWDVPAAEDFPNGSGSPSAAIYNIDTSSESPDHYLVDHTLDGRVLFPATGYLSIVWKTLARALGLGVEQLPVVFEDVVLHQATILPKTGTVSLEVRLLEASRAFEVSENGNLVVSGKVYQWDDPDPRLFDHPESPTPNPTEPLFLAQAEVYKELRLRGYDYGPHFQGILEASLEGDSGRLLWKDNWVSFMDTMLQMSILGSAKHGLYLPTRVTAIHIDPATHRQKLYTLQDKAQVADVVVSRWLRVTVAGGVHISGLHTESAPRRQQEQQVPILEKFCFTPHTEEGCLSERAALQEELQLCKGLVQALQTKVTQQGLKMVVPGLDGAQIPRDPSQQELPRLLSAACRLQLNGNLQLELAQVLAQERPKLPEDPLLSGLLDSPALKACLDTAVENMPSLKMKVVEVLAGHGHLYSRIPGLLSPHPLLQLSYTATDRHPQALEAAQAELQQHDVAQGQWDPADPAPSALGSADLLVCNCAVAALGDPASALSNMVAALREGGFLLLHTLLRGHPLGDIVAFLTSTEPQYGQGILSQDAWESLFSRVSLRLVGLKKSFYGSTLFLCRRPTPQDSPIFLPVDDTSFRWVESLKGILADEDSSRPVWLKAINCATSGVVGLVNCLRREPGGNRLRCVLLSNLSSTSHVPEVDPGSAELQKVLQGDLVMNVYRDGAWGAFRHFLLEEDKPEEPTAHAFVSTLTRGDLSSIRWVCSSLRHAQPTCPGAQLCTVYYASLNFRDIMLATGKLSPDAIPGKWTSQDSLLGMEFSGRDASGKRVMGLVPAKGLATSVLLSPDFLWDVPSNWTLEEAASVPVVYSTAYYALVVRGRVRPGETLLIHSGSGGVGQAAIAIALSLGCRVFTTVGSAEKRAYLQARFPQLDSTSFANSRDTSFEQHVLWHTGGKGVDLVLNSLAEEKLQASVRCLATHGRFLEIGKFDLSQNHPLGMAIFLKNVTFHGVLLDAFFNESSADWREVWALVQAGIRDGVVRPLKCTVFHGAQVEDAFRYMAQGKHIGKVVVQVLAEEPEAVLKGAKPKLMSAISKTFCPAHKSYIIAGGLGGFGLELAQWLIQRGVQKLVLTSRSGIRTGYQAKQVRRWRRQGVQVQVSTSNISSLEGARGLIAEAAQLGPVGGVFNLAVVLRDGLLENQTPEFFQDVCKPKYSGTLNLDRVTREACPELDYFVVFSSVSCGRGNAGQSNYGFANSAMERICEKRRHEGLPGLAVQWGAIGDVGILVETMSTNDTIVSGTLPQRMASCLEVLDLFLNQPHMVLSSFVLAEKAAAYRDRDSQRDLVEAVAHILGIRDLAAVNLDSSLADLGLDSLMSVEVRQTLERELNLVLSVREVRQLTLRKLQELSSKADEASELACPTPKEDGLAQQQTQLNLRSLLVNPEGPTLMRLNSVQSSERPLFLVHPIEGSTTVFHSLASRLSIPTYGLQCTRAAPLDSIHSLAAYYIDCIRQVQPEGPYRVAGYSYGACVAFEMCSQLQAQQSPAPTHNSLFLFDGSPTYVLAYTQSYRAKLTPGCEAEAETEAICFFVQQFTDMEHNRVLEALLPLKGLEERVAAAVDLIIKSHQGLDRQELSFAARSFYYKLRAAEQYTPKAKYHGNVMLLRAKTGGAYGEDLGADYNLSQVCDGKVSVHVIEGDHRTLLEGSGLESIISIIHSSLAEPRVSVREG

Fatty acid synthase [2] = molecular target: T1, Fatty acid synthase; test: FAS thioesterase domain inhibitors, dose response, biochemical, kinetic fluorescence intensity (AID 624326); type: functional;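 also: rate of fluorescence rise from hydrolysis of a fluorogenic O-methyl fluorescein ester substrate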
[3] = molecular target: T2, Heat shock factor protein 1 (Mus musculus, UniProt P38532); test: HSF1 potentiators in luciferase reporter cells, confirmation, cell-based, NIH3T3, luminescence, dose retest (AID 435004); type: functional;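 also: stress induced by proteasome inhibitor MG132 added 30 min after compound; luciferase reporter driven by HSF1 response element in NIH3T3 cells; actives raise luminescence as potentiators of the MG132 stress response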
T2 sequence (P38532 whole entry): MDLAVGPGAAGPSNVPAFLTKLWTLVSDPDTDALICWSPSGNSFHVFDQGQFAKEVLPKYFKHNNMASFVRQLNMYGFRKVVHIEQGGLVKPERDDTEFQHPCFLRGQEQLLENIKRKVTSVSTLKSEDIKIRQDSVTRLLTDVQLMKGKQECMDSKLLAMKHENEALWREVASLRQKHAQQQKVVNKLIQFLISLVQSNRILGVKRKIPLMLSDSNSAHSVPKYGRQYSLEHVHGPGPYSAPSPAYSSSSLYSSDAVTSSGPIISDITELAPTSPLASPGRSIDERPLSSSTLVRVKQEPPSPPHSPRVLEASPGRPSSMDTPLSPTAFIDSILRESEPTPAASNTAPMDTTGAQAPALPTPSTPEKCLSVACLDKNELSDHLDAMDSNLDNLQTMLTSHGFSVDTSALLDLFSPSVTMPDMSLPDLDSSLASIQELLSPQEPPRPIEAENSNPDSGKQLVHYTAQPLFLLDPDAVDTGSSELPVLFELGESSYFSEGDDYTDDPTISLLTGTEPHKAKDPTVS

[4] = molecular target: T3, Replicative DNA helicase DnaB (Mycobacterium tuberculosis, UniProt P9WMR3); test: DnaB intein splicing inhibitors, dose response, biochemical, cell-free fluorescence (AID 449749); type: functional
T3 sequence (P9WMR3 whole entry): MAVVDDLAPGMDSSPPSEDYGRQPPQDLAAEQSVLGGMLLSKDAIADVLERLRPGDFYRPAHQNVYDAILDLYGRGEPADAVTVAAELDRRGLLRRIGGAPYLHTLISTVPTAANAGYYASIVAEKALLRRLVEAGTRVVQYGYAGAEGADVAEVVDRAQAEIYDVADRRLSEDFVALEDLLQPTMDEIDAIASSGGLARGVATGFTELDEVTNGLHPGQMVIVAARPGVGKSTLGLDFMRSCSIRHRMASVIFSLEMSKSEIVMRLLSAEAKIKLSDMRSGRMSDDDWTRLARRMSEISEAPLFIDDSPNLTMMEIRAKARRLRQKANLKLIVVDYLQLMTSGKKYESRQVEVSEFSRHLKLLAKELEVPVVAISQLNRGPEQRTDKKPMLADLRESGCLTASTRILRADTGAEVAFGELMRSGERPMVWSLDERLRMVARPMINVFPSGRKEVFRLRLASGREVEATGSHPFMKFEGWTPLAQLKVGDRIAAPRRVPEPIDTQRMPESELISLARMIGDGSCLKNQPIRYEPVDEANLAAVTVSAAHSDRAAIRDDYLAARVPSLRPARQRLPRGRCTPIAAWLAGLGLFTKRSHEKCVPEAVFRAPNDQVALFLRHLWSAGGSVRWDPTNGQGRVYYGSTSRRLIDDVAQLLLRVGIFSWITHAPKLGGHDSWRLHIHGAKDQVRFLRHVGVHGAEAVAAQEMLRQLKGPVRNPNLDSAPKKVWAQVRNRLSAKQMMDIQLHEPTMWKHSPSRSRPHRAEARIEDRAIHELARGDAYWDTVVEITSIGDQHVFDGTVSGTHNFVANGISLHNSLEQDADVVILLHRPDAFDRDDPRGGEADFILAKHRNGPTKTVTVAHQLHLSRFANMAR

Protein RecA = molecular target: T4, Protein RecA (Mycobacterium tuberculosis, UniProt P9WHJ3); test: Fluorescence Cell-Free Homogeneous Dose Retest to Identify Inhibitors of RecA-Intein Splicing Activity. [Related pubchem assays (depositor defined):AID2097, AID2223, AID489010, AID492950]; type: functional
T4 sequence (P9WHJ3 whole entry): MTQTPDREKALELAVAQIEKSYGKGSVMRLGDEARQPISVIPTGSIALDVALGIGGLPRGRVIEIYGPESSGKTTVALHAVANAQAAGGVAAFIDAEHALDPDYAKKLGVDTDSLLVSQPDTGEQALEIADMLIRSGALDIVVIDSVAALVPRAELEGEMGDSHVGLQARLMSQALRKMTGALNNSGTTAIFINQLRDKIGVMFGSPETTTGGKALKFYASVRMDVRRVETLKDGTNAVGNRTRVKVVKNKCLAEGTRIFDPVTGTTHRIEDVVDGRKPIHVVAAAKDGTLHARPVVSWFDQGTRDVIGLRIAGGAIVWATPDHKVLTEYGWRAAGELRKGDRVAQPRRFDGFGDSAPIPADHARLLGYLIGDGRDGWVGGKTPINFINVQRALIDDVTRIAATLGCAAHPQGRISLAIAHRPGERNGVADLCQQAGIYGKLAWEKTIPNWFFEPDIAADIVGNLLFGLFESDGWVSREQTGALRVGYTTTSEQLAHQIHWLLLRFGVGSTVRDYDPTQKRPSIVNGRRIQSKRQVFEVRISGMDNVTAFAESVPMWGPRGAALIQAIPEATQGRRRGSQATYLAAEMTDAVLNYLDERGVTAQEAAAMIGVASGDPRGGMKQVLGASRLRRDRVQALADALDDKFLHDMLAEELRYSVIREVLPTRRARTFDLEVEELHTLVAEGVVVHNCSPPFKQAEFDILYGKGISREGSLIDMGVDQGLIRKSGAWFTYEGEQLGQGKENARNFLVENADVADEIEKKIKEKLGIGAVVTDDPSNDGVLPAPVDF

BJ [5] = test: cells; type: functional, cell-based; conditions: Homo sapiens
BJ [6] = test: cytotoxicity toward BJ-TERT fibroblasts, dose response, cell-based, RAS-independent, luminescence (AID 1933); type: functional; conditions: Homo sapiens
BJ [7] = test: cytotoxicity toward BJ-TERT-LT-ST fibroblasts, dose response, cell-based, RAS-independent, luminescence (AID 1935); type: functional; conditions: Homo sapiens;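 also: BJ fibroblasts immortalized with TERT plus LT and ST oncogenes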
[8] = cytotoxicity toward DRD oncogenic fibroblasts, dose response, cell-based, non-viral oncogenic, luminescence (AID 1934); type: functional; conditions: Homo sapiens
[9] = growth suppression of beta-catenin-knockout colon cells, dose response, cell-based, HCT116, human colon tumor (AID 1045); type: functional;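 also: HCT116 colon tumor cells with beta catenin knocked out; cells exposed to compound for 60 hours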
[10] = growth suppression of PTEN-null colon cells, dose response, cell-based, HCT116 PTEN knockout (AID 1047); type: functional;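 also: HCT116 colon tumor cells with PTEN knocked out; cells exposed to compound for 60 hours before readout; potency for loss of cell viability measured by luminescence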
[11] = inhibitors of firefly luciferase expression or activity, dose response, H4 neuroglioma cells, luminescence (AID 1990); type: functional, cell-based
[12] = Luminescence Cell-Based Dose Response HTS to Identify Inhibitors of 5'UTR Stem-Loop Driven Prion Protein mRNA Translation in H4 Neuroglioblastoma Cells. [Related pubchem assays: 1827 (Project Summary), 1813 (Primary HTS)]; type: functional
[13] = inhibitors of SNCA 5'UTR-driven reporter translation, confirmation, H4 neuroglioma cells, luminescence (AID 1988); type: functional, cell-based
[14] = HEp-2 cell cytotoxicity, dose response, cytotoxicity control for RSV inhibitor project, HTS (AID 2410); type: functional; conditions: human respiratory syncytial virus

With `O=C(COC(=O)c1cc([N+](=O)[O-])ccc1N1CCOCC1)NC1CCCCC1` the IC50 (Fatty acid synthase [1]) was 0.321 µM (active) and the IC50 (Fatty acid synthase [2]) was 0.266 µM (active).
With `COc1ccccc1/C=C/C(=O)c1cc(Br)ccc1OC(=O)c1ccco1` the EC50 [3] was 20.5 µM (active).
In the case of `C/C(CC(=O)N1CCN(C=O)CC1)=N\NC(=O)c1cccc([N+](=O)[O-])c1`, the AC50 [4] is reported as 24.7 µM (active) and the EC50 (Protein RecA) is reported as 1.99 µM (active).
For `CC1CCCN(S(=O)(=O)c2ccc(NC(=O)Cc3ccc(S(=O)(=O)N4CCOCC4)s3)cc2)C1` (centres undefined), the IC50 (Fatty acid synthase [1]) was 7.85 µM (active) and the IC50 (Fatty acid synthase [2]) was 9.35 µM (active).
With `C=CC[n+]1c(-c2ccc(OC)cc2)csc1NNC(=O)Nc1ccccc1` the EC50 [3] was > 260 µM (inactive).
In the case of `N#CC1=C(N)Oc2[nH]nc(-c3cccs3)c2C1c1ccsc1` (centres undefined), the AC50 [4] is reported as 2.2 µM (active) and the EC50 (Protein RecA) is reported as 0.672 µM (active).
For `O=C(Oc1ccc(Br)cc1)C1CC(=O)N(c2ccc(F)cc2)C1` (centres undefined), the AC50 [4] was 7.12 µM (active) and the EC50 (Protein RecA) was 11.8 µM (active).
In the case of `Cc1ccc(C)c(C2NC(=O)c3ccccc3N2)c1` (centres undefined), the EC50 (BJ [5]) is reported as 93.9 µM (active), the EC50 (BJ [6]) is reported as 9.8 µM (inconclusive) and the EC50 (BJ [7]) is reported as 18.2 µM (active). The EC50 [8] was 19.3 µM (inconclusive).
For `COc1ccc(C(c2nnnn2-c2c(C)cccc2C)N2CCC(n3c(O)nc4ccccc43)CC2)cc1` (centres undefined), the IC50 (Fatty acid synthase [1]) was 16.5 µM (active) and the IC50 (Fatty acid synthase [2]) was 16 µM (active).
In the case of `O=C(NCCCc1ccccc1)c1cc([N+](=O)[O-])ccc1Cl`, the IC50 (Fatty acid synthase [1]) is reported as 1.1 µM (active) and the IC50 (Fatty acid synthase [2]) is reported as 3.28 µM (active).
For `COc1ccc(Cl)cc1N(CC(=O)Nc1ccccc1SC)S(C)(=O)=O`, the EC50 [3] was > 260 µM (inactive).
With `Cc1cccc(/C=N\NC(=O)c2csnn2)c1` the EC50 [3] was > 260 µM (inconclusive).
With `N#Cc1ccsc1NC(=O)CCc1ccccc1` the EC50 (BJ [5]) was 34.1 µM (active), the EC50 (BJ [6]) was 15.7 µM (active) and the EC50 (BJ [7]) was 18.1 µM (active). The EC50 [8] was 19.3 µM (active).
For `CCCCOc1ccccc1NC(=O)Cn1c(-c2nonc2N)nc2ccccc21`, the EC50 [9] was 0.163 µM (active), the EC50 [10] was 0.254 µM (active) and the EC50 [11] was 7.21 µM (inconclusive). For the same molecule, the EC50 (BJ [5]) was 7.06 µM (active), the EC50 (BJ [6]) was 3.38 µM (active) and the EC50 (BJ [7]) was 3.73 µM (inconclusive). The EC50 [12] was 8.28 µM (active), the EC50 [13] was 2.49 µM (active) and the EC50 [8] was 4.23 µM (active).
For `Cc1cc(C(c2ccc(O)cc2)c2cc(C)c(O)cc2C)c(C)cc1O`, the AC50 [4] was 4.7 µM (active), the CC50 [14] was 20 µM (active) and the EC50 (Protein RecA) was 100 µM (active).
For `O=C(CN1C(=O)c2cccc([N+](=O)[O-])c2C1=O)N1CCc2ccccc2C1`, the IC50 (Fatty acid synthase [2]) was 9.41 µM (active).
